# Laboratory results reported in ChEMBL document CHEMBL1773024, “New 29-nor-cycloartanes with a 3,4-seco- and a novel 2,3-seco-structure from the leaves of Sinocalycanthus chinensis” (Bioorg Med Chem, 2011).
# Experiments:
# K562 [1] = experiment: Cytotoxicity against human doxorubicin-resistant K562 cells after 6 hrs by MTT assay; format: functional, cell-based; conditions: K562, 6 h
# K562 [2] = experiment: Cytotoxicity against human K562 cells after 6 hrs by MTT assay; format: functional, cell-based; conditions: K562, 6 h
# KB = experiment: Cytotoxicity against human KB cells after 48 hrs by MTT assay
# MCF7 = experiment: Cytotoxicity against human MCF7 cells after 48 hrs by MTT assay; conditions: MCF7, 48 h
# [3] = Cytotoxicity against human KB-C2 cells after 48 hrs by MTT assay; conditions: KB-C2, 48 h
# [4] = Cytotoxicity against human colchicine-resistant KB-C2 cells after 48 hrs by MTT assay; conditions: KB-C2, 48 h
compound,measurement,setting,value
COc1cccc2c1C(=O)c1c(O)c3c(c(O)c1C2=O)C[C@@](O)(C(C)=O)C[C@@H]3O[C@H]1C[C@H](N)[C@H](O)[C@H](C)O1 [DAUNORUBICIN],IC50,K562 [1],8.5 µg/mL
same,IC50,K562 [2],1.49 µg/mL
same,IC50,KB,0.45 µg/mL
same,IC50,MCF7,0.033 µg/mL
same,IC50,[3],7.9 µg/mL
same,IC50,[4],11.6 µg/mL
C=C[C@@H]1CC[C@@H]2[C@]3(CC[C@]4(C)[C@@H]([C@H](C)CC/C=C(/C)C(=O)O)CC[C@@]24C)C[C@]13CCC(=O)OC [SINOCALYCANCHINENSIN B],IC50,K562 [1],17.6 µg/mL
same,IC50,K562 [2],16.5 µg/mL
same,IC50,KB,20.9 µg/mL
same,IC50,MCF7,35.7 µg/mL
same,IC50,[3],22.2 µg/mL
same,IC50,[4],18.9 µg/mL
C=C[C@@H]1CC[C@@H]2[C@]3(CC[C@]4(C)[C@@H]([C@H](C)[C@H]5CC=C(C)C(=O)O5)CC[C@@]24C)C[C@]13CCC(=O)O [SINOCALYCANCHINENSIN D],IC50,K562 [1],7 µg/mL
same,IC50,K562 [2],16.7 µg/mL
same,IC50,KB,31.7 µg/mL
same,IC50,MCF7,39.2 µg/mL
same,IC50,[3],26.4 µg/mL
same,IC50,[4],25.6 µg/mL
C/C(=C/CC[C@@H](C)[C@H]1CC[C@@]2(C)[C@@H]3CC[C@H]4[C@H](C)C(=O)CC[C@@]45C[C@@]35CC[C@]12C)C(=O)O [SINOCALYCANCHINENSIN G],IC50,K562 [1],7.3 µg/mL
same,IC50,K562 [2],14.8 µg/mL
same,IC50,KB,19.9 µg/mL
same,IC50,MCF7,23.7 µg/mL
same,IC50,[3],21.6 µg/mL
same,IC50,[4],21.4 µg/mL
C=C[C@@H]1CC[C@@H]2[C@]3(CC[C@]4(C)[C@@H]([C@H](C)CC/C=C(/C)C(=O)O)CC[C@@]24C)C[C@]13CCC(=O)O [SINOCALYCANCHINENSIN A],IC50,K562 [1],38.9 µg/mL
same,IC50,K562 [2],29.9 µg/mL
same,IC50,KB,30.7 µg/mL
same,IC50,MCF7,61.6 µg/mL
same,IC50,[3],30.4 µg/mL
same,IC50,[4],33.4 µg/mL
COC(=O)[C@@H](C)[C@@H]1CC[C@@H]2[C@]3(CC[C@]4(C)[C@@H]([C@H](C)CC/C=C(/C)C(=O)O)CC[C@@]24C)C[C@]13CCOC(C)=O [SINOCALYCANCHINENSIN F],IC50,K562 [1],19.5 µg/mL
same,IC50,K562 [2],13.2 µg/mL
same,IC50,KB,16.6 µg/mL
same,IC50,MCF7,33.8 µg/mL
same,IC50,[3],21.7 µg/mL
same,IC50,[4],17.5 µg/mL
C=C[C@@H]1CC[C@@H]2[C@]3(CC[C@]4(C)[C@@H]([C@H](C)CC/C=C(/C)C(=O)O)CC[C@@]24C)C[C@]13CCC(=O)OC/C=C(\C)CCC[C@H](C)CCC[C@H](C)CCCC(C)C [SINOCALYCANCHINENSIN C],IC50,K562 [2],> 100 µg/mL
same,IC50,KB,> 100 µg/mL
same,IC50,MCF7,> 100 µg/mL
same,IC50,[3],> 100 µg/mL
same,IC50,[4],> 100 µg/mL
C/C(=C\CC[C@@H](C)[C@H]1CC[C@@]2(C)[C@@H]3CC[C@H]4[C@H](C)C(=O)CC[C@@]45C[C@@]35CC[C@]12C)C(=O)O [SINOCALYCANCHINENSIN H],IC50,K562 [1],19.4 µg/mL
same,IC50,K562 [2],14.8 µg/mL
same,IC50,KB,18.6 µg/mL
same,IC50,MCF7,18.6 µg/mL
same,IC50,[3],18.8 µg/mL
same,IC50,[4],17.2 µg/mL
C=C[C@@H]1CC[C@@H]2[C@]3(CC[C@]4(C)[C@@H]([C@H](C)[C@H]5CC=C(C)C(=O)O5)CC[C@@]24C)C[C@]13CCC(=O)OC [SINOCALYCANCHINENSIN E],IC50,K562 [1],20.5 µg/mL
same,IC50,K562 [2],22.4 µg/mL
same,IC50,KB,62.2 µg/mL
same,IC50,MCF7,> 100 µg/mL
same,IC50,[3],49.2 µg/mL
same,IC50,[4],1.51 µg/mL
